Measurements reported in patent publication US20200339544A1 (JOINT STOCK COMPANY "BIOCAD", priority 2017, published 2020).
Like-named read-outs stand apart in the source and are kept apart here. Marks after values point to notes of the source that are not given here.

Assays:
[1] = molecular target: T1, WT EGFR (Wild-Type EGFR) (Homo sapiens, UniProt P00533); assay: Inhibition of WT EGFR kinase activity (ADP-Glo); format: biochemical
T1 construct: purchased SignalChem
Method: (§1) To assess IC50 values of the compounds disclosed herein, a biochemical assay of inhibition of kinase activity in a non-cellular system and a functional cellular anti-proliferation assay were used.
(§2) To assess inhibition of WT EGFR (Wild-Type EGFR), DM EGFR (DoubleMutantEGFR, L828R/T790M) kinase activity, SignalChem kinase system and ADP-Glo™ Kinase Assay (V9102, Promega) detection kit were used.
(§3) The measurements were carried out in a 25 μL reaction volume using a 96-well plate. […] The solution of 0.5 mg/mL peptide substrate and 50 μM ATP in the same buffer were added; the solution was incubated for 180 minutes at 37° C. To detect the amount of ATP taken up during the kinase reaction, the ADP Glo Detection Kit (V9102, Promega) was used. The luminescence was measured with the Infinite M200Pro plate spectrophotometer (Tecan, Switzerland). IC50 values were calculated using Magellan 7.2 software (Tecan, Switzerland) approximating experimental points by four-parameter logistic model with the optimization by Levenberg-Marquardt (Table 14).

[2] = molecular target: T2, DM EGFR (DoubleMutantEGFR, L828R/T790M) (Homo sapiens, UniProt P00533, L858R/T790M); assay: Inhibition of DM EGFR kinase activity (ADP-Glo); format: biochemical; conditions: for IC50: inhibition of kinase activity, EGFR DM (L828R/T790M); for SI, IC50(WT)/IC50(DM): selectivity index, kinase EGFR WT vs EGFR DM
T2 construct: purchased SignalChem
Method: as §1, §2, §3

[3] = Chemical stability in human blood plasma; format: in vitro ADME; conditions: pooled human blood plasma; 10 μm; 4 hours at 37° C.; substance amount remaining
Method: 2) Determination of chemical stability in human blood plasma.
Determination of stability in human blood plasma was performed using pooled human blood plasma taken from ten healthy donors. The initial candidate solution (10 mM in DMSO) was diluted with pooled blood plasma to a concentration of 10 μm (test solution). The test solution was incubated in a dry block thermostat for 4 hours at 37° C. HPLC with Agilent 1200 liquid chromatography system (Agilent, USA) was employed to determine peak areas of the compounds in test samples, said peak areas corresponding to the initial test time (prior to incubation) and the final test time (after incubation in a dry block thermostat for 4 hours at 37° C.), proteins were preliminarily precipitated with acetonitrile. We used gradient elution (1 mL/min flow rate). Substance amount in % in a sample after thermostatting was determined.
The stability of the compounds was estimated.

[4] = test system: H1975 (lung adenocarcinoma, DM, L828R/T790M); assay: Antiproliferative activity on H1975 cells (Alamar Blue); format: cell-based; conditions: for IC50: Homo sapiens, NCI-H1975, H1975 cells; for SI IC50(A549)/IC50(DM): selectivity index, A549 vs H1975 cells
Method: (§4) Antiproliferative activity of EGFR inhibitors (Tables 15 and 16) was measured in cell-based bioassay on continuous epithelial cell cultures: A549 (lung adenocarcinoma, ATCC® CRM-CCL-185™—WT), HCC827 (lung adenocarcinoma, ATCC® CRL-2868™—SM (SingleMutantEGFR, exon19delE746-A750)) and H1975 (lung adenocarcinoma, ATCC® CRL-5908™—DM (DoubleMutantEGFR, L828R/T790M)) using cell viability reagent Alamar Blue (ThermoFisher, # DAL1100). Cells were cultured in 10% FBS-supplemented (Gibco, #16140071) RPMI-1640 (PanEco, S330p) for at least 1 passage after thawing, washed with PBS and passaged in 96-well culture plates (3599, Corning) with RPMI-1640 growth medium supplemented with 2% FBS in an amount of 5*10^3 cells/well for A549, 10*10^3 cells/well for HCC827 and 15*10^3 cells/well for H1975 in 100 μL, and incubated at 37° C. in an incubator (Thermo Forma, USA) under 5% of CO2 for 16-18 h for cell attachment.
(§5) The test compounds were dissolved in DMSO in the selected range of concentrations and transferred to RPMI-1640 medium (PanEco, S330p) supplemented with 2% FBS. After adding 50 μl of the prepared dilutions to the cells, the incubation mixture contained the final concentrations of the test substances and no more than 1% DMSO. The plates were Incubated at 37° C. for 72 h. After incubation, 15 μl of Alamar Blue vital dye (ThermoFisher, # DAL1100) was added to each well. The plates were shaken on an orbital shaker (Biosan, Latvia) and further incubated for 3-5 h in a CO2 incubator (Thermo Forma, USA). Number of living cells was estimated using a plate spectrophotometer Infinite M200Pro, (Tecan, Switzerland) measuring fluorescent signal at the excitation wavelength (λEx) of 540 nm and emission wavelength (λEm) of 590 nm.
IC50 was calculated using Magellan 7.2 software (Tecan, Switzerland) approximating experimental points by four-parameter logistic model with the optimization by Levenberg-Marquardt. […]
(§6) The ratio between IC50 for cell lines containing wild-type EGFR (A549) and IC50 for cell lines containing target mutation L828R/T790M (H1975) is the selectivity index (SI): […]

[5] = test system: A549 (lung adenocarcinoma, WT); assay: Antiproliferative activity on A549 cells (Alamar Blue); format: cell-based; conditions: Homo sapiens, antiproliferative test
Method: as §4, §5
IC50 was calculated using Magellan 7.2 software (Tecan, Switzerland) approximating experimental points by four-parameter logistic model with the optimization by Levenberg-Marquardt.
as §6

[6] = test system: HepG2 cells; assay: General cytotoxicity on HepG2 cells; format: cell-based; conditions: therapeutic index, CC50 HepG2 / IC50 H1975
Method: (§7) The CC50 values were determined in the test for General cytotoxicity on HepG2 cells (rhepatocellular carcinoma, ATCC® HB-8065™) (Table 16). The cells were subcultured in DMEM medium (PanEco, S420p) supplemented with 10% FBS (Gibco, #16140071) for at least 1 passage after thawing, washed with PBS and passaged in 96-well culture plates (3599, Corning) at a concentration of 2*10^4 cells/100 μL per well, and incubated for 16-18 h. The test substances were titrated in DMSO and transferred to DMEM (PanEco, S420p) medium supplemented with 2% FBS, added to the cells and incubated at 37° C. for 72 hours; viability of the cells was then assessed using Alamar Blue dye (ThermoFisher, # DAL1100). CC50 was determined similarly to IC50.
(§8) The ratio between CC50 for HepG2 cell line and IC50 for H1975 cell line is the therapeutic index (TI): […]

[7] = General cytotoxicity on HepG2 cells; format: cell-based; conditions: human; general cytotoxicity, HepG2 cells, 72 hours, average of several tests
Method: as §7, §8

[8] = antiproliferative test, Table 15, read-out: IC50 H1975 (DM)
[9] = average values obtained in several tests, Table 16, read-out: H1975 (DM) IC50

| Structure (SMILES) | IC50 [1] | IC50 [2] | SI, IC50(WT)/IC50(DM) [2] | Stability in blood plasma, % [3] | IC50 [4, 8] | SI IC50(A549)/IC50(DM) [4] | IC50 [5] | IC50 [4, 9] | TI, CC50/IC50 [6] | CC50 at 72 h [7] |
| --- | --- | --- | --- | --- | --- | --- | --- | --- | --- | --- |
| C=CC(=O)Nc1cc(Nc2nccc(C(=O)c3ccc(N4CCC(N)CC4)cc3OC)n2)c(OC)cc1N(C)CCN(C)C [EGFR_3365-126] | 19.8 nM | 1.86 nM | 10.62 | – | – | – | – | – | – | – |
| C=CC(=O)Nc1cc(Nc2nccc(C(=O)c3ccc(N4CCCC4=O)cc3)n2)c(OC)cc1N(C)CCN(C)C [EGFR_3365_91] | 107 nM | 4.55 nM | 23.60 | 95.4% | > 200 nM | <158 | 31600 nM | – | – | – |
| C=CC(=O)Nc1cc(Nc2nccc(C(=O)c3ccc(OCCOC)cc3)n2)c(OC)cc1N(C)CCN(C)C [EGFR_3365_92, N-(2-((2-(dimethylamino)ethyl)(methyl)amino)-4-methoxy-5-((4-(4-(2-methoxyethoxy)benzoyl)pyrimidin-2-yl)amino)phenyl) acrylamide] | 133 nM | 7.57 nM | 17.56 | 99.1% | 35.1 nM | 652 | 22900 nM | – | – | – |
| C=CC(=O)Nc1cc(Nc2nccc(C(=O)c3ccc(N4CCC(C#N)CC4)cc3)n2)c(OC)cc1N(C)CCN(C)C [EGFR_3365_97, N-(5-((4-(4-(4-cyanopiperidin-1-yl)benzoyl)pyrimidin-2-yl)amino)-2-((2-(dimethylamino)ethyl)(methyl)amino)-4-methoxyphenyl)acrylamide] | 84.2 nM | 2.3 nM | 36.55 | 99.3% | 22.9 nM | 601 | 13800 nM | 22.9 nM | 943 | 21600 nM |
| C=CC(=O)Nc1cc(Nc2nccc(C(=O)c3ccc(N4CCC(OC)CC4)cc3)n2)c(OC)cc1N(C)CCN(C)C [EGFR_3365_98, N-(2-((2-(dimethylamino)ethyl)(methyl)amino)-4-methoxy-5-((4-(4-(4-methoxypiperidin-1-yl)benzoyl)pyrimidin-2-yl)amino)phenyl)acrylamide] | 83.2 nM | 1.86 nM | 44.62 | 96.1% | 13.7 nM | 1065 | 14500 nM | 13.7 nM | 1770 | 24200 nM |
| C=CC(=O)Nc1cc(Nc2nccc(C(=O)c3ccc(N4CCC[C@H](OC)C4)cc3)n2)c(OC)cc1N(C)CCN(C)C [EGFR_3365_110, (S)-N-(2-((2-(dimethylamino)ethyl)(methyl)amino)-4-methoxy-5-((4-(4-(3-methoxypiperidin-1-yl)benzoyl)pyrimidin-2-yl)amino)phenyl)acrylamide] | 97.7 nM | 2.32 nM | 42.20 | 95.7% | 21.7 nM | 439 | 9510 nM | 21.7 nM | 855 | 18500 nM |
| C=CC(=O)Nc1cc(Nc2nccc(C(=O)c3ccc(N4CCC[C@@H](OC)C4)cc3)n2)c(OC)cc1N(C)CCN(C)C [EGFR_3365_111, (R)-N-(2-((2-(dimethylamino)ethyl)(methyl)amino)-4-methoxy-5-((4-(4-(3-methoxypiperidin-1-yl)benzoyl)pyrimidin-2-yl)amino)phenyl)acrylamide] | 186 nM | 2.33 nM | 79.88 | 100.0% | 36.6 nM | 307 | 11200 nM | 36.6 nM | 742 | 27100 nM |
| C=CC(=O)Nc1cc(Nc2nccc(C(=O)c3ccc(OC4CC4)cc3)n2)c(OC)cc1N(C)CCN(C)C [EGFR_3365_116, N-(5-((4-(4-cyclopropoxybenzoyl)pyrimidin-2-yl)amino)-2-((2-(dimethylamino)ethyl)(methyl)amino)-4-methoxyphenyl)acrylamide] | 35 nM | 1.75 nM | 19.99 | 86.0% | 29.5 nM | 400 | 11800 nM | 29.5 nM | 749 | 22100 nM |
| C=CC(=O)Nc1cc(Nc2nccc(C(=O)c3ccc(N4CCCCC4)cc3OC)n2)c(OC)cc1N(C)CCN(C)C [EGFR_3365_122, N-(2-((2-(dimethylamino)ethyl)(methyl)amino)-4-methoxy-5-((4-(2-methoxy-4-(piperidin-1-yl)benzoyl)pyrimidin-2-yl)amino)phenyl)acrylamide] | 19.7 nM | 2.67 nM | 7.35 | 92.2% | 2.21 nM | 2398 | 5310 nM | 2.21 nM | 5710 | 12600 nM |
| C=CC(=O)Nc1cc(Nc2nccc(C(=O)c3ccc(N4CCC(N(C)C)CC4)cc3OC)n2)c(OC)cc1N(C)CCN(C)C [EGFR_3365_127, N-(2-((2-(dimethylamino)ethyl)(methyl)amino)-5-((4-(4-(4-(dimethylamino)piperidin-1-yl)-2-methoxybenzoyl)pyrimidin-2-yl)amino)-4-methoxyphenyl)acrylamide] | 24.5 nM | 2.96 nM | 8.29 | – | 8.45 nM | >166** | > 10000 nM | – | – | – |
